Read-outs that look alike come from different tables or passages of the source.
What was measured:
SRC = molecular target: T1, SRC (Homo sapiens, UniProt P12931); experiment: Biochemical kinase assay (Reaction Biology), SRC; conditions: 10 μM ATP; read-out: Enzymatic Kinase SRC IC50
T1 construct: purchased Reaction Biology Corporation (assay service; enzyme from the CRO's panel)
Procedure: (§1) The biochemical kinase assay was performed at Reaction Biology Corporation (www.reactionbiology.com, Malvern, PA) following the procedures described in the reference (Anastassiadis T, et al Nat Biotechnol. 2011, 29, 1039). Specific kinase/substrate pairs along with required cofactors were prepared in reaction buffer; 20 mM Hepes pH 7.5, 10 mM MgCl2,1 mM EGTA, 0.02% Brij35, 0.02 mg/ml BSA, 0.1 mM Na3VO4, 2 mM DTT, 1% DMSO (for specific details of individual kinase reaction components see Supplementary Table 2). Compounds were delivered into the reaction, followed ˜20 minutes later by addition of a mixture of ATP (Sigma, St. Louis MO) and ^33P ATP (Perkin Elmer, Waltham MA) to a final concentration of 10 μM. Reactions were carried out at room temperature for 120 min, followed by spotting of the reactions onto P81 ion exchange filter paper (Whatman Inc., Piscataway, NJ). Unbound phosphate was removed by extensive washing of filters in 0.75% phosphoric acid. […] IC50 values and curve fits were obtained using Prism (GraphPad Software).
(§2) The enzymatic kinase inhibition activities at 10 μM ATP concentration were determined at Reaction Biology.

MET = molecular target: T2, MET (Homo sapiens, UniProt P08581); experiment: Biochemical kinase assay (Reaction Biology), MET; conditions: 10 μM ATP; read-out: Enzymatic Kinase MET IC50
T2 construct: purchased Reaction Biology Corporation (assay service; enzyme from the CRO's panel)
Procedure: as §1, with “Specific” for “The biochemical kinase assay was performed at Reaction Biology Corporation (www.reactionbiology.com, Malvern, PA) following the procedures described in the reference (Anastassiadis T, et al Nat Biotechnol. 2011, 29, 1039). Specific”, “NJ).” for “NJ). Unbound phosphate was removed by extensive washing of filters in 0.75% phosphoric acid.”
as §2

MKN-45 cells [1] = experiment: MET cell proliferation assay, MKN-45 (CellTiter-Glo); format: cell-based; conditions: Homo sapiens, 72 hours treatment
Procedure: (§3) Two thousand cells per well were seeded in 384 well white plate for 24 hrs, and then treated with compounds for 72 hours (37° C., 5% CO2). Cell proliferation was measured using CellTiter-Glo luciferase-based ATP detection assay (Promega) following the manufacturer's protocol. IC50 determinations were performed using GraphPad Prism software (GraphPad, Inc., San Diego, CA).
(§4) The anti-cell proliferation activities against MET and CSF1R driven cell lines were conducted with MKN-45, SNU-5, Ba/F3 TEL-CSF1R cells, and M-NFS-60 respectively.

SNU-5 cells = experiment: MET cell proliferation assay, SNU-5 (CellTiter-Glo); format: cell-based; conditions: Homo sapiens, 72 hours treatment
Procedure: as §3, §4

HCC827 cells [2] = experiment: HCC827 cell proliferation assay, single agents and combinations; format: cell-based, human
M-NFS-60 cells = experiment: M-NFS-60 cell proliferation at varied CSF-1; format: cell-based; conditions: Mus musculus, read-out: M-NFS-60 IC50
Procedure: as §3, §4

MKN-45 cells [3] = experiment: Scratch wound healing assay, MKN-45; format: cell-based; conditions: 36-48 hours treatment
Procedure: (§5) MKN-45 or HCC827 cells were seeded in 24-well plate. After 12-24 hours, confluent cell monolayers were gently scraped with a sterile pipette tip to form a scratch. The plates were washed with fresh medium, and the cells were incubated with medium alone or medium containing various concentration of compounds. After 36-48 hours, the plates were examined and recorded by an EVOS FL microscopy (Life Technology) to monitor rescaling of the cell monolayer.

HCC827 cells [4] = experiment: Scratch wound healing assay, HCC827; format: cell-based, human; conditions: 36-48 hours treatment
Procedure: as §5

c-FMS (CSF1R) = molecular target: T3, c-FMS (CSF1R) (Homo sapiens, UniProt P07333); experiment: Biochemical kinase assay (Reaction Biology), c-FMS (CSF1R); conditions: 10 μM ATP; read-out: Enzymatic Kinase c-FMS (CSF1R) IC50
T3 construct: purchased Reaction Biology Corporation (assay service; enzyme from the CRO's panel)
Procedure: as §1, with “Specific” for “The biochemical kinase assay was performed at Reaction Biology Corporation (www.reactionbiology.com, Malvern, PA) following the procedures described in the reference (Anastassiadis T, et al Nat Biotechnol. 2011, 29, 1039). Specific”, “NJ).” for “NJ). Unbound phosphate was removed by extensive washing of filters in 0.75% phosphoric acid.”
as §2

T2 sequence (P08581 25-1390): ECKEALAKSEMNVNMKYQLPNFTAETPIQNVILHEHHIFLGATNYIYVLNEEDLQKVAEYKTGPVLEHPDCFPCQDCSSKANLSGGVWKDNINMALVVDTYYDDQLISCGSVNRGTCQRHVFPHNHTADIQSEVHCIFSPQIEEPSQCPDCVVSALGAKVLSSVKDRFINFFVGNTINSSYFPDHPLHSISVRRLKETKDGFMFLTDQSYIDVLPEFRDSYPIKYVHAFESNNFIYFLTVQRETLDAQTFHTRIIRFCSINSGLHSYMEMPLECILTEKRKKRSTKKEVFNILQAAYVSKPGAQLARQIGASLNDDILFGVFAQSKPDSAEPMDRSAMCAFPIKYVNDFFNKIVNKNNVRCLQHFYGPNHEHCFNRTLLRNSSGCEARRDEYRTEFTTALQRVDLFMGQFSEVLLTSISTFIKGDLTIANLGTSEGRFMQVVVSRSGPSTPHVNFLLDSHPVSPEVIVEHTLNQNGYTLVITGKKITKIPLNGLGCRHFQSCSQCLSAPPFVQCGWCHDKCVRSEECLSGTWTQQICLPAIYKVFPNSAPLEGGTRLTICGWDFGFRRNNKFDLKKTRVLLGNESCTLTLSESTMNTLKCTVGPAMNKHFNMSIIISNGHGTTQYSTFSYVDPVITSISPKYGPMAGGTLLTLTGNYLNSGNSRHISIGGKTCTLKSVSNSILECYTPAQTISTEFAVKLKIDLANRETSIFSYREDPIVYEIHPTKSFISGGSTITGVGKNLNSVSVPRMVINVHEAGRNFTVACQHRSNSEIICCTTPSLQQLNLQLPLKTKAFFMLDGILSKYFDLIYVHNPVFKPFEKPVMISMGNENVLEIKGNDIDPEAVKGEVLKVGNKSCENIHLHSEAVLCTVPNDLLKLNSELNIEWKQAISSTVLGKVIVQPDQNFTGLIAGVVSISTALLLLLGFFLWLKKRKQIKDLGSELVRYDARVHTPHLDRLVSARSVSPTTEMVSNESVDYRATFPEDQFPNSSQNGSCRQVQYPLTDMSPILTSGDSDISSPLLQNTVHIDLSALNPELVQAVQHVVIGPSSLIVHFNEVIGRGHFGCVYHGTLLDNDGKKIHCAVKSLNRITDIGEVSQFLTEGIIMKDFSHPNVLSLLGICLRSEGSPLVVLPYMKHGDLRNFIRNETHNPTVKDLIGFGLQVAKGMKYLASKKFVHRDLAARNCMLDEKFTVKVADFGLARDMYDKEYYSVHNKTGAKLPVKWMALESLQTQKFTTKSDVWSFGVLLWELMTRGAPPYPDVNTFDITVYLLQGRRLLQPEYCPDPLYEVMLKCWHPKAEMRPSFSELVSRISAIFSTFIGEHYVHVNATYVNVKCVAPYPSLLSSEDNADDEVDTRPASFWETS
T1 sequence (P12931 whole entry): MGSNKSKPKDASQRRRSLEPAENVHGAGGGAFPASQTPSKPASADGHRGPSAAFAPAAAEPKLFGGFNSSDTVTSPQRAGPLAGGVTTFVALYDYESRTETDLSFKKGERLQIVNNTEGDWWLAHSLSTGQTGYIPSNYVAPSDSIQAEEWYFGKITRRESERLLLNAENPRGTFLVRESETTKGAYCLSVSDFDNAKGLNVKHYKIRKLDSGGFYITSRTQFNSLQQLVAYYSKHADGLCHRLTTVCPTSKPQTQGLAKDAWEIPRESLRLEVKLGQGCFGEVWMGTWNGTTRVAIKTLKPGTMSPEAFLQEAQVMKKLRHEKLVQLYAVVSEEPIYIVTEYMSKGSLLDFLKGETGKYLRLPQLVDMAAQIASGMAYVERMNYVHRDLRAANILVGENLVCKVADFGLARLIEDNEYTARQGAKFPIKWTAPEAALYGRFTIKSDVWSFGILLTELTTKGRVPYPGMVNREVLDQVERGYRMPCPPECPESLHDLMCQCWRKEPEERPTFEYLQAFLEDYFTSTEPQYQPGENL
T3 sequence (P07333 20-972): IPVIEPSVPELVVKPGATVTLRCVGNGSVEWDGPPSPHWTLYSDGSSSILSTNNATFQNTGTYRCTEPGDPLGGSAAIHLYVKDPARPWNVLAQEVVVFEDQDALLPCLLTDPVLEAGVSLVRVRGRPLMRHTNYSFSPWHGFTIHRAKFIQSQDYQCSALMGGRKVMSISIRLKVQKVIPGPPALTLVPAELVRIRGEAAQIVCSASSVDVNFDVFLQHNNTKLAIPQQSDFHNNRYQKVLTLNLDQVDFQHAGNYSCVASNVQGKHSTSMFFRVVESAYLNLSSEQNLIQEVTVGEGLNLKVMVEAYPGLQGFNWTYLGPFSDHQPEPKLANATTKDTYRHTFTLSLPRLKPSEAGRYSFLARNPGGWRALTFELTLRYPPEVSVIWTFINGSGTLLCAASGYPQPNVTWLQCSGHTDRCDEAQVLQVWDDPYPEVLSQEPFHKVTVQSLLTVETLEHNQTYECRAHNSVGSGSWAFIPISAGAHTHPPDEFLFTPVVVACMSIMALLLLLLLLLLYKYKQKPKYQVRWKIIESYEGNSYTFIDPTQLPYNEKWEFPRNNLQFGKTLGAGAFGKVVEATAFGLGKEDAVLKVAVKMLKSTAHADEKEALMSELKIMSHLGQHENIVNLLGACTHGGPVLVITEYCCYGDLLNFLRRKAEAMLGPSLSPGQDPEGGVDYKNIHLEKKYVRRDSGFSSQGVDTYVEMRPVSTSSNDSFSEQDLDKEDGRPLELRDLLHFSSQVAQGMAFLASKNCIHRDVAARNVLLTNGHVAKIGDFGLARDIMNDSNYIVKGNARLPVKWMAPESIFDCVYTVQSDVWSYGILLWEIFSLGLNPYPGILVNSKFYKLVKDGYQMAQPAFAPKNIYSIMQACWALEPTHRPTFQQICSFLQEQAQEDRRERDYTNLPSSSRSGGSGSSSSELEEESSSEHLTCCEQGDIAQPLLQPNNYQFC

Compound | IC50 (SRC) | IC50 (MET) | IC50 (MKN-45 cells [1]) | IC50 (SNU-5 cells) | other results
CCN1Cc2c(C#N)cccc2O[C@@H](C)CNC(=O)c2cnn3ccc1nc23 [Compound 2, (7S)-14-ethyl-7-methyl-4-oxo-4,5,6.7,13,14-hexahydro-1,15-ethenopyrazolo[4,3-f][1,4,8,10]benzoxatriazacyclotridecine-12-carbonitrile] | 3 nM | 36.5 nM | 129 nM | 136 nM | 
CCN1Cc2c(C#N)cccc2OCCNC(=O)c2cnn3ccc1nc23 [Compound 3, 14-ethyl-4-oxo-4,5,6,7,13,14-hexahydro-1,15-ethenopyrazolo[4,3-f][1,4,8,10]benzoxatriazacyclotridecine-12-carbonitrile] | 97.1 nM | 110 nM | 471 nM | 674 nM | 
CCN1Cc2c(ccc(F)c2Cl)O[C@@H](C)CNC(=O)c2c(N)nn3ccc1nc23 [Compound 1, (7S)-3-amino-12-chloro-14-ethyl-11-fluoro-7-methyl-6,7,13,14-tetrahydro-1,15-ethenopyrazolo[4,3-f][1,4,8,10]benzoxatriazacyclotridecin-4(5H)-one] |  | 20.4 nM | 193 nM | 174 nM | 
C=CC(=O)Nc1cc(Nc2nccc(-c3cn(C)c4ccccc34)n2)c(OC)cc1N(C)CCN(C)C [AZD9291] |  |  |  |  | Emax (HCC827 cells [2]; Homo sapiens, HCC827, read-out: HCC827 cell proliferation Emax (maximum inhibition)): 47%; IC50 (HCC827 cells [2]; Homo sapiens, HCC827, read-out: HCC827 cell proliferation IC50): 5 nM
FC(F)(F)c1ccc(CNc2ccc(Cc3c[nH]c4ncc(Cl)cc34)cn2)cn1 [Pexidartinib, reference compound] |  |  |  |  | IC50 (M-NFS-60 cells; CSF-1 0 ng/mL): < 0.1 nM; IC50 (M-NFS-60 cells; CSF-1 0.3 ng/mL): 2 nM; IC50 (M-NFS-60 cells; CSF-1 1 ng/mL): 146 nM; IC50 (M-NFS-60 cells; CSF-1 3 ng/mL): 212 nM; IC50 (M-NFS-60 cells; CSF-1 10 ng/mL): 380 nM; IC50 (M-NFS-60 cells; CSF-1 30 ng/mL): 595 nM; IC50 (M-NFS-60 cells; CSF-1 100 ng/mL): 702 nM
CNC(=O)c1ccc(-c2cnc3ncc(Cc4ccc5ncccc5c4)n3n2)cc1F [capmatinib] |  |  |  |  | IC50 (HCC827 cells [2]; Homo sapiens, HCC827, combination partner at 1 μM where combined, AZD9291 curves partial, read-out: HCC827 cell proliferation IC50): > 10000 nM; HCC827 cell proliferation IC50 (HCC827 cells [2]; combination partner at 1 μM where combined, AZD9291 curves partial): not active; cell migration of MKN-45 cells, wound healing (MKN-45 cells [3]): inhibited; cell migration of HCC827 cells, wound healing (HCC827 cells [4]): minimum effect; cell migration of HCC827 cells, wound healing (HCC827 cells [4]; listed as campmatinib): minimal effect
CCN1Cc2c(ccc(F)c2C#N)O[C@@H](C)CNC(=O)c2cnn3ccc1nc23 [Compound 4, (7S)-14-ethyl-11-fluoro-7-methyl-4-oxo-4,5,6,7,13,14-hexahydro-1,15-ethenopyrazolo[4,3-f][1,4,8,10]benzoxatriazacyclotridecine-12-carbonitrile] | 0.49 nM | 1.85 nM | 12 nM | 5.8 nM | IC50 (c-FMS (CSF1R)): 0.42 nM
CCN1Cc2c(C#N)cccc2O[C@@H](C)CNC(=O)c2c(N)nn3ccc1nc23 [Compound 6, (7S)-3-amino-14-ethyl-7-methyl-4-oxo-4,5,6,7,13,14-hexahydro-1,15-ethenopyrazolo[4,3-f][1,4,8,10]benzoxatriazacyclotridecine-12-carbonitrile] | 13.6 nM | 9.7 nM | 58.3 nM | 36.8 nM | 

More lines, main results first:

IC50 (SRC) | IC50 (MET) | IC50 (MKN-45 cells [1]) | IC50 (SNU-5 cells) | Compound | other results
0.83 nM | 3.8 nM | 1 nM | 1 nM | CC(C)N1Cc2c(ccc(F)c2C#N)O[C@@H](C)CNC(=O)c2c(N)nn3ccc1nc23 [Compound 8, (7S)-3-amino-11-fluoro-7-methyl-4-oxo-14-(propan-2-yl)-4,5,6,7,13,14-hexahydro-1,15-ethenopyrazolo[4,3-f][1,4,8,10]benzoxatriazacyclotridecine-12-carbonitrile] | 
 |  | 297 nM |  | C[C@H]1CNC(=O)c2c(N)nn3ccc(nc23)NCc2c(ccc(F)c2C#N)O1 [Compound 9, (7S)-3-amino-11-fluoro-7-methyl-4-oxo-4,5,6,7,13,14-hexahydro-1,15-ethenopyrazolo[4,3-f][1,4,8,10]benzoxatriazacyclotridecine-12-carbonitrile] | 
0.7 nM | 2.2 nM | 17.7 nM | 1 nM | C[C@H]1CNC(=O)c2c(N)nn3ccc(nc23)N(CC2CC2)Cc2c(ccc(F)c2C#N)O1 [Compound 7, (7S)-3-amino-14-(cyclopropylmethyl)-11-fluoro-7-methyl-4-oxo-4,5,6,7,13,14-hexahydro-1,15-ethenopyrazolo[4,3-f][1,4,8,10]benzoxatriazacyclotridecine-12-carbonitrile] | 

Reference: patent US12606571B2, “Macrocyclic compounds and uses thereof” (TURNING POINT THERAPEUTICS, INC., priority 2017, dated 2026)
